Source: patent publication US5846720A, “Methods of determining chemicals that modulate expression of genes associated with cardiovascular disease” (Oncogene Science, Inc., priority 1996, dated 1998)
Where two headings read alike, the source gives them in different places.

Assays:
G-CSF mRNA = assay: S1 nuclease protection, G-CSF mRNA; format: cell-based, human
Description: S1 Nuclease protection assays were carried out as described in reference 118.
To further confirm, that compounds that had been identified in a luciferase expression assay using a G-CSF specific reporter cell line would be active in inducing transcription of the endogenous G-CSF gene, cells from the parental cell line 5637 used to construct the reporter cell line were incubated with cycloheximide (25 ug/ml), DMSO (0.5%,solvent control) and low, medium and high concentrations of the compounds 542 (10, 50, 250 μM),1255 (20, 100, 500 uM), 1793(0.25, 1.2, 6.25 μM) and 1904 (20, 100 uM) for 18 hours. RNA was extracted and the concentration of G-CSF, GM-CSF and gamma-actin mRNA was determined by the S1 protection method as described in above. The positions of G-CSF GM-CSF and gamma-actin specific protected fragments are indicated (G, GM, A) at the left side of the gel (FIG. 37).

[1] = tested on: 5637 bladder carcinoma cells; assay: G-CSF secretion, two-antibody sandwich immunoassay; format: cell-based, human; settings: 48 hours, serum-containing media
Description: Supernatants from 5637 bladder carcinoma cells incubated with chemicals registering as positives in the G-CSF promoter/luciferase high throughput assay were assayed for secreted G-CSF protein using the two-antibody sandwich immunoassay (83). The G-CSF Assay kit manufactured by Oncogene Science, Inc. was used and the manufacturer's instructions were followed.
The levels of G-CSF in the cell supernatants were determined by a sandwich-antibody assay as described in above (FIG. 42).

G-CSF promoter [2] = assay: G-CSF promoter/luciferase reporter assay (high-throughput screen I), G21 cells; settings: for GCSF fold induction relative to solvent control: transcriptional activators; for GCSF fold induction relative to solvent control / GCSF fold inhibition relative to solvent control: Table 2, 6 h incubation; for GCSF fold inhibition relative to solvent control: transcriptional inhibitors; for G-CSF promoter induction: G21, 7 hours, serum-free
MMTV promoter = assay: MMTV promoter/luciferase reporter assay (high-throughput screen I, control for specificity), M10 cells; format: cell-based, mouse; settings: Table 2, 6 h incubation; for MMTV fold induction relative to solvent control: transcriptional activators, original high-throughput assay; for MMTV fold inhibition relative to solvent control: transcriptional inhibitors
hGH promoter = assay: hGH promoter/luciferase reporter assay (high-throughput screen I), 532 cells; format: cell-based, rat; settings: Table 2, 6 h incubation; for hGH fold induction relative to solvent control: transcriptional activators; for hGH fold inhibition relative to solvent control: transcriptional inhibitors
Source text: 6. a GC rat pituitary cell line, transfected with the growth hormone reporter plasmid, designated 532, deposited under ATCC Accession No. CRL 10663.

GM-CSF promoter = assay: GM-CSF promoter/luciferase induction by known inducers, GM1073, GM1088, GM1105; format: cell-based, human
Description: 6 clones generated by electroporation of U5637 cells with pGMLL103 NEO3 (FIG. 26) were subjected to further analysis as described above for G-CSF: --GM1073 (10 μg; circular); GM1081, GM1088 and GM1090 (5 μg; linear); and GM1098 and GM1105 (10 μg; linear). Clone GM1073 was selected for use in the high throughput screen.
Promoter induction experiments were also conducted with the GM-CSF reporter cell lines GM1073, GM1088 and GM1105, which were all shown to contain correctly inserted constructs (see above). […] Luciferase expression of clones GM1088 and GM1105 was induced by PMA 2.8 fold and 2 fold, respectively, while TNF-alpha induced both clones 2 fold. All three M-CSF clones responded to a 16-hour incubation with 2,000 units/ml Interferon-gamma by a 20-fold increase of luciferase expression from the M-CSF promoter.

G-CSF promoter [3] = assay: G-CSF promoter/luciferase induction by known inducers, clone G1002; format: cell-based, human; settings: for fold induction at 0.02 µg/mL: Homo sapiens, read-out: G-CSF promoter induction
Description: U5637 bladder carcinoma cells were transfected with pGVU150 (FIG. 21) or pGVU140 plus pTKNeo3 either by electroporation using a BRL (Gaithersburg, Md.) Cellporator electroporation device or by lipofection using BRL lipofectin and following the manufacturer's protocol. Clones were analyzed for luciferase expression and those testing positive expanded further and frozen in liquid nitrogen. Further analysis of 6 clones (G1002, G2005, G2071, G2085, G3014, G3031) included Southern blotting, reaction to known inducers, satisfactory attachment to microtiter plates and acceptable standard deviation in multiple luciferase expression assays. Clone G1002 was selected for use in the high throughput screen.
Cell clones with correctly integrated promoter/reporter constructs were analyzed for correct reaction to known transcriptional inducers. […] Both TNF-alpha and PMA induction levels of clone G1002 were influenced by the presence or absence of epidermal growth factor (EGF). […] The 9.3 fold induction by PMA in the absence of EGF was reduced to 5.6 fold by including EGF in the serum-free incubation mixture. Similar differences were observed, when EGF was substituted by 10% fetal calf serum.

[4] = G1002, 7 hours, serum-free, absence of EGF

Compound	MMTV fold induction relative to solvent control (MMTV promoter)	hGH fold induction relative to solvent control (hGH promoter)	GCSF fold induction relative to solvent control (G-CSF promoter [2])	further results
CN(C)c1ccc(C(=C2C=CC(=[N+](C)C)C=C2)c2ccc(N(C)C)cc2)cc1 [#1780]	–	–	–	levels of endogenous G-CSF mRNA (G-CSF mRNA; method not stated at the place): stimulate levels of endogenous G-CSF mRNA; G-CSF secretion [1]: increased G-CSF secretion; scored as positive in repeat assays (G-CSF) (G-CSF promoter [2]; 48 independent luciferase assays, same day): scored as positives in every single one of these assays; activation of the G-CSF promoter (dose response) (G-CSF promoter [2]; G21 cells): specifically activated the G-CSF promoter; EC50 (G-CSF promoter [2]; read-out: ED50 (concentration of chemical resulting in 50% maximal stimulation), G-CSF reporter cell line G21, range over the three chemicals): 5 to 70 µM
Nc1c2ccccc2nc2ccccc12 [#1904]	–	–	–	amount of G-CSF mRNA (S1 nuclease protection) (G-CSF mRNA; 5637 cells, 18 hours): increased mRNA production
COc1c(F)cc(Br)cc1[N+](=O)[O-] [Chemical 2030]	0.87 fold	0.67 fold	5.53 fold	–
O=C(O)c1ccc(Br)o1 [Chemical 2035]	–	–	–	MMTV fold inhibition relative to solvent control (MMTV promoter): 0.89 fold; hGH fold inhibition relative to solvent control (hGH promoter): 7.14 fold; GCSF fold inhibition relative to solvent control (G-CSF promoter [2]): 0.57 fold
Nc1nc2c(nc(Br)n2[C@@H]2O[C@H](CO)[C@@H](O)[C@H]2O)c(=O)[nH]1 [Chemical 2036]	–	–	–	MMTV fold inhibition relative to solvent control (MMTV promoter): 0.81 fold; hGH fold inhibition relative to solvent control (hGH promoter): 4.34 fold; GCSF fold inhibition relative to solvent control (G-CSF promoter [2]): 0.58 fold
CCCCCCCCCCCCCCCCBr [Chemical 2037]	–	–	–	MMTV fold inhibition relative to solvent control (MMTV promoter): 0.50 fold; hGH fold inhibition relative to solvent control (hGH promoter): 4.00 fold; GCSF fold inhibition relative to solvent control (G-CSF promoter [2]): 0.51 fold
COc1cc2oc(=O)cc(CBr)c2cc1OC [Chemical 2064]	2.53 fold	1.10 fold	0.82 fold	–
Cc1n[nH]cc1Br [Chemical 2082]	–	–	–	MMTV fold inhibition relative to solvent control (MMTV promoter): 1.23 fold; hGH fold inhibition relative to solvent control (hGH promoter): 0.65 fold; GCSF fold inhibition relative to solvent control (G-CSF promoter [2]): 5.26 fold
CC(CCl)CBr (stereo not drawn) [Chemical 2096]	0.89 fold	0.61 fold	3.27 fold	–
ClCCCCCBr [Chemical 2097]	1.22 fold	0.88 fold	5.09 fold	–
OCc1cccc(Cl)c1 [Chemical 2121]	–	–	–	MMTV fold inhibition relative to solvent control (MMTV promoter): 1.14 fold; hGH fold inhibition relative to solvent control (hGH promoter): 0.40 fold; GCSF fold inhibition relative to solvent control (G-CSF promoter [2]): 4.76 fold
ClCc1ccc(Cl)cc1 [Chemical 2129]	0.95 fold	0.75 fold	3.23 fold	–
O=C1CCCCC1Cl (stereo not drawn) [Chemical 2148]	2.82 fold	0.92 fold	0.45 fold	–
O=C(N[C@H](CO)[C@H](O)c1ccc([N+](=O)[O-])cc1)C(Cl)Cl [Chemical 2191]	7.32 fold	0.35 fold	0.37 fold	–
CC(=O)n1ccnc1 [Chemical #58, 1-Acetylimidazole]	0.42 fold	0.17 fold	6.03 fold	–
Nc1nc(=O)n([C@H]2C[C@H](O)[C@@H](CO)O2)cc1Br [Chemical #542, 5-Bromo-2'-deoxycytidine]	1.26 fold	1.08 fold	6.28 fold	–
O=c1[nH]c(=O)n([C@H]2C[C@H](O)[C@@H](CO)O2)cc1Br [Chemical #543, 5-Bromo-2'-deoxyuridine]	0.98 fold	0.72 fold	7.17 fold	–
CC(=O)N(C)c1ccc(N)cc1 [Chemical #1374, 4'-Amino-N-methyl-acetanilide]	1.05 fold	0.05 fold	11.03 fold	–
CN(C)c1ccc(C(=C2C=CC(=[N+](C)C)C=C2)c2ccc(N(C)C)cc2)cc1 [Chemical #1780, Crystal Violet]	1.15 fold	0.38 fold	20.39 fold	–
O=NN(O)c1ccccc1 [Chemical #1783, Cupferron]	0.89 fold	0.32 fold	6.55 fold	–
CCCCCCCCCCCCCC(=O)O[C@@H]1[C@@H](C)[C@@]2(O)[C@@H](C=C(CO)C[C@]3(O)C(=O)C(C)=C[C@@H]23)[C@@H]2C(C)(C)[C@]12OC(C)=O [PMA, phorbol-myristate-acetate, reference compound]	–	–	–	GM-CSF promoter induction (GM-CSF promoter; GM1073, serum-free media): 7.5 fold; fold induction at 0.02 µg/mL (GM-CSF promoter; Homo sapiens, GM1073, 20 ng/ml, 10.5 hours, serum-containing media): 3.4; GM-CSF promoter induction (GM-CSF promoter; clone GM1088): 2.8 fold; GM-CSF promoter induction (GM-CSF promoter; clone GM1105): 2 fold; G-CSF promoter induction (G-CSF promoter [3]; [4]): 9.3 fold; fold induction at 0.02 µg/mL (G-CSF promoter [3]; 7 h): 5.6; fold induction at 0.02 µg/mL (G-CSF promoter [3]; 10.5 h): 4.4; G-CSF promoter induction (G-CSF promoter [2]; absence of EGF): 34.6 fold; G-CSF promoter induction (G-CSF promoter [2]; presence of EGF): 24.6 fold
Interleukin-1 beta: Interleukin-1 beta, known transcriptional inducer	–	–	–	G-CSF promoter induction (G-CSF promoter [3]; G1002, 0.5 ng/ml, 10.5 hours, serum-containing media): 2.6 fold
TNF-alpha	–	–	–	GM-CSF promoter induction (GM-CSF promoter; clone GM1088): 2 fold; GM-CSF promoter induction (GM-CSF promoter; clone GM1105): 2 fold; G-CSF secretion [1]: increased G-CSF secretion; G-CSF promoter induction (G-CSF promoter [3]; G1002, 8.3 ng/ml, 10.5 hours, serum-containing media): 2 fold; G-CSF promoter induction (G-CSF promoter [3]; G1002, 7 hours, serum-free defined media with 20 ng/ml EGF): 3 fold; G-CSF promoter induction (G-CSF promoter [3]; [4]): 4 fold; G-CSF promoter induction (G-CSF promoter [2]; absence of EGF): 2.1 fold; G-CSF promoter induction (G-CSF promoter [2]; presence of EGF): 2.8 fold
